Data from patent publication US9505796B2, “Phosphorylated A2A receptor agonists” (Crozet Medical GMBH, priority 2006, dated 2016).

Tests used:
[1] = test system: surface protein expression of VCAM-1 in aortic ECs; assay: VCAM-1 surface protein expression in aortic ECs (flow cytometry); format: cell-based, mouse; details: ATL-146e 10 μM for 6 hours
Description: Mouse aortal ECs were cultured as described. Six mL of type I rat tail collagen (4 mg/mL) combined with 0.1 M NaOH, 3.5 mL 3×DMEM and 5.25 mL of 1×DMEM supplemented with 30% FCS was aliquoted into a 24 well plate, allowed to gel at 37° C. for 1 hour and equilibrated overnight in complete EC medium: RPMI-1640 supplemented with 20% heat inactivated FCS, 2-mercaptoethanol (4 L/L), gentamicin (10 g/mL) and EC growth supplement (50 g/mL, BD Biosciences). Aortas from CD73^−/− or WT mice cut into circular rings were opened longitudinally and placed luminal side down onto the collagen gel. After 2 days, complete medium was added and changed every third day. After 10 days, aortic segments were removed and the collagen gel digested with 0.3% collagenase H. Then, ECs were grown in complete medium and used between passages 2-8. Some ECs were treated with ATL-146e (10 μM) for 6 hours. […]
For immunofluorescence, confluent ECs on glass chamber slides were fixed in methanol, permeabilized with 0.5% triton and reacted with p65 (C-20, Santa Cruz) or isotype control and FITC-conjugated secondary Ab (Boehringer Mannheim). […] After incubation for 30 min at RT, primary Ab binding was detected using a FITCconjugated secondary Ab (Boehringer Mannheim) and analyzed in a FACSCalibur (BD Biosciences). Specific mean fluorescence intensity was determined by subtracting isotype control staining.

[2] = test system: VCAM-1 mRNA expression in aortic ECs; assay: VCAM-1 mRNA expression in cultured aortic ECs (PCR); format: cell-based, mouse; details: CD73−/− ECs, ATL-146e 10 μM for 6 hours
Description: (§1) Mouse aortal ECs were cultured as described. Six mL of type I rat tail collagen (4 mg/mL) combined with 0.1 M NaOH, 3.5 mL 3×DMEM and 5.25 mL of 1×DMEM supplemented with 30% FCS was aliquoted into a 24 well plate, allowed to gel at 37° C. for 1 hour and equilibrated overnight in complete EC medium: RPMI-1640 supplemented with 20% heat inactivated FCS, 2-mercaptoethanol (4 L/L), gentamicin (10 g/mL) and EC growth supplement (50 g/mL, BD Biosciences). Aortas from CD73^−/− or WT mice cut into circular rings were opened longitudinally and placed luminal side down onto the collagen gel. After 2 days, complete medium was added and changed every third day. After 10 days, aortic segments were removed and the collagen gel digested with 0.3% collagenase H. Then, ECs were grown in complete medium and used between passages 2-8. Some ECs were treated with ATL-146e (10 μM) for 6 hours. Mono Mac 6 cells were maintained as described.
RNA was prepared using the RNAqzeous-Micro isolation kit (Ambion) and RNeasy Mini kit (Qiagen) and reverse-transcribed into cDNA using Mo-MLV RT (Invitrogen).

[3] = test system: wire-injured carotid arteries of WT and CD73−/− mice; assay: Mouse model of carotid artery injury, neointima formation; format: in vivo; details: 4 weeks after injury, continuous infusion 0.004 μg/kg per minute
Text: Male, 6-12 week old CD73^−/− or WT NMRI mice (n=6-8) were left untreated or fed an atherogenic diet containing 21% fat for one week before and up to 4 weeks after injury. Transluminal carotid artery injury was induced by 4 rotational passes of a 0.36-mm guide-wire. After 6 days of diet and one day before carotid injury, some mice (n=10 per group) were anesthetized and underwent implantation of a primed, 28-day osmotic pump (model 2004, Alza Corp) placed subcutaneously via transverse midscapular incision for continuous treatment with ATL (0.004 μg/kg per minute; 200 μL of 1% dimethyl sulfoxide in saline; kind gift from G. W. Sullivan and J. Linden, University of Virginia). Arteries were harvested by in situ perfusion fixation with 4% paraformaldehyde and embedded in paraffin. […]
Neointimal and medial areas were quantified in serial 5 μm sections of common carotid arteries within a standardized distance from the bifurcation (50-250 μm) stained with Movat pentachrome Areas within the external elastic lamina (EEL), internal elastic lamina (TEL) and lumen (L) were determined by computer-assisted planimetry (Diskus software, Hilgers). […] The relative content of macrophages in the neointima was determined in serial sections of the LCA within 300 μm from the bifurcation (6 per mouse, each 50 μm apart). […] Images were recorded using a Leica DMLB microscope and CCD camera. […]

[4] = test system: arrest of Mono Mac 6 cells on aortic ECs; assay: Adhesion assay: monocyte arrest on ECs under laminar flow; format: cell-based, mouse; details: ATL-146e 10 μM for 6 hours
Description: as §1
Laminar flow assays were performed as described. ECs were perfused with Mono Mac 6 cells (0.5×10^6/mL) pre-treated with or without anti-VLA-4 (10 g/mL, Immunotech) at 1.5 dyn/cm^2. The numbers of firmly arrested and rolling cells were quantified after 4 min in multiple (>10) fields by analyzing images recorded by video microscopy, and expressed as cells/mm^2

CCNC(=O)[C@H]1O[C@@H](n2cnc3c(N)nc(C#CCC4CCC(C(=O)OC)CC4)nc32)[C@H](O)[C@@H]1O (stereo partly shown) [ATL-146e]
surface protein expression of VCAM-1 ([1]; CD73−/− ECs): reversed the increased surface protein expression of VCAM-1 | surface protein expression of VCAM-1 ([1]; WT ECs): slightly diminished its expression | VCAM-1 mRNA expression [2]: reduced the elevated VCAM-1 mRNA expression | neointimal hyperplasia in carotid arteries ([3]; CD73−/− mice, vs control CD73−/− mice): completely prevented neointimal hyperplasia | neointima formation in carotid arteries ([3]; WT mice, vs control WT mice): significantly inhibited neointima formation | monocyte arrest ([4]; CD73−/− ECs): inhibition of the monocyte arrest | monocyte arrest ([4]; WT ECs): not affected
